Like-named read-outs stand apart in the source and are kept apart here.
Columns and labels:
aged-impaired rats (AI) = type: in vivo, rat
Description: FIG. 1 depicts the effects of administering levetiracetam on the spatial memory retention of ten aged-impaired rats (AI) in an eight-arm Radial Arm Maze (RAM) test. Six treatment conditions are employed: vehicle control, levetiracetam (1.25 mg/kg/day), levetiracetam (2.5 mg/kg/day), levetiracetam (5 mg/kg/day), levetiracetam (10 mg/kg/day) and levetiracetam (20 mg/kg/day). In the RAM task used, there is a one-hour delay between presentation of a subset of arms (5 arms available and 3 arms blocked) and completion of the eight-arm win-shift task (eight arms available). Rats are pre-treated 30-40 minutes before daily trials with a one-time drug/control treatment. The number of errors made by the rats during the retention phase is used as a measure of spatial memory retention. Errors are defined as instances when rats enter an arm from which food has already been retrieved in the pre-delay component of the trial or when rats re-visit an arm in the post-delay session that had already been visited. Paired t-tests are used to compare the number of errors between different doses of levetiracetam and vehicle control. […]
A Radial Arm Maze (RAM) behavioral task is one example of a cognitive test, specifically testing spacial memory (Chappell et al. Neuropharmacology 37: 481-487, 1998). The RAM apparatus consists of, e.g., eight equidistantly spaced arms. A maze arm projects from each facet of a center platform. A food well is located at the distal end of each arm. Food is used as a reward. Blocks can be positioned to prevent entry to any arm. Numerous extra maze cues surrounding the apparatus may also be provided. After habituation and training phases, spatial memory of the subjects may be tested in the RAM under control or test compound-treated conditions. As a part of the test, subjects are pretreated before trials with a vehicle control or one of a range of dosages of the test compound. At the beginning of each trial, a subset of the arms of the eight-arm maze is blocked. Subjects are allowed to obtain food on the unblocked arms to which access is permitted during this initial “information phase” of the trial. Subjects are then removed from the maze for a delay period, e.g., a 60 second delay, a 15 minute delay, a one-hour delay, a two-hour delay, a six hour delay, a 24 hour delay, or longer) between the information phase and the subsequent “retention test,” during which the barriers on the maze are removed, thus allowing access to all eight arms. […] The identity and configuration of the blocked arms vary across trials. The number of “errors” the subjects make during the retention test phase is tracked. An error occurs in the trial if the subjects entered an arm from which food had already been retrieved in the pre-delay component of the trial, or if it re-visits an arm in the post-delay session that had already been visited. A fewer number of errors would indicate better spatial memory. The number of errors made by the test subject, under various test compound treatment regimes, can then be compared for efficacy of the test compound in treating cognitive impairment associated with CNS disorders.

[1] = tested on: reelin in Entorhinal Cortex (EC2); experiment: reelin in entorhinal cortex after four weeks of osmotic minipump treatment (Example 5); type: in vivo, rat; settings: levetiracetam 10 mg/kg/day in osmotic minipumps for four weeks, aged-impaired rats
somatostatin in DG hilus = experiment: Somatostatin (SOM) immunohistochemistry, hilar interneuron counts in aged-impaired rats; type: in vivo, rat; settings: 10 mg/kg/day, four-week treatment, AI-LEV vs AI-VEH p<0.01, AI-LEV vs Y p=0.679
Source text: Tissue was labeled with anti-SOM antiserum (Santa Cruz Biotechnology; cat. no. SC7819-P) using an established immunoperoxidase protocol and tissue sections were processed concurrently to minimize inter-replication variability (Haberman et al., 2009). The anti-SOM antiserum can detect somatostatin. Briefly, sections were washed in 0.1M phosphate-buffered saline (PBS) to remove cryoprotectant, and endogenous peroxidases were quenched in 0.3% H202 in PBS. After additional PBS washes, sections were blocked in 5% normal horse serum in PBS with 0.3% Triton. Sections were then incubated with primary antibody at a dilution of 1:1600 in PBS containing 0.15% Triton and 3% normal serum for 72 hours at 4° C. with agitation. […] The secondary antibody was detected with avidin-biotin complex (ABC Elite; Vector Laboratories Inc., Burlingame, Calif.) and the avidin-biotin complex was visualized with nickel-enhanced diaminobenzadine (Vector Laboratories Inc., Burlingame, Calif.). […]
Interneuron quantification was performed using a Zeiss Axioplan 2 microscope equipped with a motorized stage. […] Neuron counts were analyzed as the total number of hilar interneurons per hippocampal section for each rat.

[2] = tested on: DG/CA3 regions of aMCI subjects; experiment: fMRI activity in DG/CA3 during lure stimuli correctly identified as similar; type: in vivo, human
[3] = tested on: entorhinal cortex of aMCI subjects; experiment: fMRI activity in entorhinal cortex (EC) during successful memory judgments; type: in vivo, human; settings: levetiracetam 125 mg twice a day for two weeks vs placebo
sematostatin in DG hilus = experiment: somatostatin in DG hilus after four weeks of osmotic minipump treatment (Example 5); type: in vivo, rat; settings: levetiracetam 10 mg/kg/day in osmotic minipumps for four weeks, aged-impaired rats

Compound: CC[C@@H](C(N)=O)N1CCCC1=O [levetiracetam, (2S)-2-(2-oxopyrrolidin-1-yl) butanamide]
- memory performance relative to vehicle control treatment (aged-impaired rats (AI)): significantly improves memory performance
- human equivalent dose (HED) of the effective rat dose (aged-impaired rats (AI); HED for a 70 kg human): 28-56 mg twice a day
- human equivalent dose (HED) of the effective rat dose (aged-impaired rats (AI); body surface area conversion of 5-10 mg/kg in rats): 0.8 to 1.6 mg/kg/day
- average no. of errors±standard error of the mean (SEM) (aged-impaired rats (AI); levetiracetam 5 mg/kg/day i.p. 30-40 min before trial, one-hour delay, n=10, vehicle 2.00±0.42): 0.75±0.32
- memory performance relative to vehicle control treatment (aged-impaired rats (AI); levetiracetam 10 mg/kg/day i.p., one-hour delay, paired t-test t(9)=2.37, p=0.042): significantly improves memory performance
- performance of AI rats in the radial maze task (aged-impaired rats (AI); levetiracetam 20 mg/kg, FIG. 1): fails to improve the performance of AI rats
- memory performance in AI rats (aged-impaired rats (AI); rat, in vivo): does not significantly improve the memory performance
- reelin in Entorhinal Cortex (EC2) [1]: restores reelin in Entorhinal Cortex (EC2)
- levels of somatostatin in DG hilus (number of SOM-immunoreactive hilar neurons) (somatostatin in DG hilus): restores the levels of somatostatin
- DG/CA3 hyperactivity during successful memory judgments ([2]; levetiracetam 62.5 mg BID for two weeks, cohort N=20): does not significantly reduce the DG/CA3 hyperactivity
- DG/CA3 activity during successful memory judgments ([2]; levetiracetam 125 mg twice a day for two weeks vs placebo, same aMCI subjects, p=0.037): reduces DG/CA3 hyper-activity
- DG/CA3 hyperactivity during successful memory judgments ([2]; levetiracetam 250 mg BID for two weeks, cohort N=17): does not significantly reduce the DG/CA3 hyperactivity
- EC activity during memory judgments [3]: normalizes activity
- somatostatin in DG hilus (sematostatin in DG hilus): restores sematostatin in DG hilus

From patent publication US11160785B2, “Methods and compositions for improving cognitive function” (AgeneBio, Inc., priority 2013, dated 2021)
